Source: US20220088195A1, “Prevention or mitigation of T-cell bispecific antibody-related adverse effects” (Hoffmann-La Roche Inc., priority 2020, published 2022)

Tests used:
CD4+ and CD8+ T cells = experiment: T cell degranulation, CD107a staining by FACS at 24h, SKM-1 + HLA-A2 WT-1-TCB; assay type: cell-based, human
Method: FIG. 13. In vitro killing assay set-up and timelines to assess T cell degranulation. PBMCs were co-cultured with SKM-1 target cells (E:T=5:1) and 10 nM HLA-A2 WT-1-TCB in the presence and absence of 100 nM dasatinib. Golgistop and Golgiplug (both BD) and CD107a antibody were added 3 hours after activation with TCB to prevent cytokine externalization.
FIG. 14. CD107a+ populations among CD4+ and CD8+ T cells in the presence and absence of dasatinib for one representative donor, in the assay of FIG. 13. Expression of CD107a on CD4+ and CD8+ T cells was measured by FACS at 24h.
FIG. 15. Percentages of CD107a+ cells among CD4+ (A) and CD8+ (B) T cells in the presence and absence of dasatinib in the assay of FIG. 13. Expression of CD107a on CD4+ and CD8+ T cells was measured by FACS at 24h. Mean of 3 donors+/−SD.
To assess whether dasatinib can efficiently prevent TCB-mediated target cell killing by activated T cells, we set up an in vitro killing assay with two stimulation steps, mimicking an ON/OFF switch. During the first stimulation, PBMCs were activated on carboxyfluorescein succinimidyl ester (CFSE)-labelled SKM-1 tumors cells with HLA-A2 WT-1-TCB in the absence of dasatinib (ON). During the second stimulation, activated PBMCs together with dead CFSE labelled SKM-1 tumors cells were washed and re-stimulated by HLA-A2 WT-1-TCB on fresh CTV labelled SKM-1 tumor cells in the presence of 100 nM dasatinib (OFF). The use of CFSE and CTV labelled SKM-1 tumors allowed to differentiate tumor cells used for first and second stimulation by flow cytometry (FIG. 8). […] Consistently, T cells were activated and functional before the addition of dasatinib in the system. 87.6% of CTV labelled SKM-1 cells were alive upon second stimulation with 10 nM HLA-A2 WT-1 TCB in the presence of 100 nM dasatinib, but only 2.04% of CTV labelled SKM-1 tumor cells were alive upon restimulation with 10 nM HLA-A2 WT-1-TCB in the absence of dasatinib (FIG. 10). […]

CD20+ B cells = experiment: CD19-TCB dependent B cell depletion in blood of humanized NSG mice; assay type: in vivo; settings: 0.5 mg/kg CD19-TCB i.v. + 50 mg/kg dasatinib p.o. twice per day
Method: FIG. 32. Timelines and dosing schedule of in vivo experiment assessing effect of dasatinib (50 mg/kg) on CD19-TCB induced cytokine release and B cell depletion in humanized NSG mice. Humanized NSG mice were co-treated with 0.5 mg/kg CD19-TCB (i.v.) and 50 mg/kg dasatinib (p.o.) twice per day. Blood was collected by tail vein bleeding at 1.5 hrs, 6 hrs and 48 hrs after treatment with CD19-TCB. At 72 hrs, blood was collected retro-orbitally, before the termination of the experiment. N=4 mice per group.
FIG. 33. […] Representative flow cytometry dot plots of CD20+ B cells gated among human CD45+ cells in the blood (48 hrs) of animals treated with vehicle (A), 0.5 mg/kg CD19-TCB (B), or 0.5 mg/kg CD19-TCB and 50 mg/kg dasatinib (C).
FIG. 34. […] CD20+ B cell count was measured by flow cytometry in the blood of the animals from the experiment described in FIG. 32 at 48 hrs (A) and 72 hrs (B). Mean of n=4 mice+/−SEM. One way ANOVA, Kruskal Wallis test, p-value: 0.1234 (ns), 0.0332 (*), 0.0021 (**), 0.0001 (***), <0.0001 (****).
To verify whether dasatinib can prevent CD19-TCB-induced B cell depletion and cytokine release in vivo, humanized NSG mice were either treated with 0.5 mg/kg CD19-TCB or co-treated with 0.5 mg/kg CD19-TCB and 50 mg/kg dasatinib as illustrated in FIG. 32. To best mimick the pharmacodynamic profile of dasatinib in the clinic and to verify whether the resulting exposure would be sufficient to prevent CD19-TCB-induced T cell cytotoxicity and cytokine release, dasatinib was given per os twice per day.
At 48 hrs and 72 hrs, mice were bled and the CD20+ B cell count was measured by flow cytometry (FIG. 33). […] The half-life of dasatinib in blood of mice being around 6 hrs, the exposure of dasatinib was probably not sufficient to durably prevent CD19-TCB-induced T cell cytotoxicity, leading to partial activity of CD19-TCB.

[1] = 10 nM HLA-A2 WT-1-TCB + 100 nM dasatinib, 24h, one representative donor

## Cc1nc(Nc2ncc(C(=O)Nc3c(C)cccc3Cl)s2)cc(N2CCN(CCO)CC2)n1 [dasatinib, N-(2-chloro-6-methylphenyl)-2-[[6-[4-(2-hydroxyethyl)-1-piperazinyl]-2-methyl-4-pyrimidinyl]amino]-5-thiazole carboxamide monohydrate]
CD4+ and CD8+ T cells; [1]
  cells positive for CD107a among CD4+ T cells: 1.22%
  cells positive for CD107a among CD8+ T cells: 2.08%
CD4+ and CD8+ T cells; 100 nM dasatinib, 3 donors
  TCB-induced CD107a expression on CD4+ and CD8+ T cells: prevented
CD20+ B cells; 48 hrs, listed as Dasatinib, monohydrate
  killing of CD20+ B cells by CD19-TCB (B cell count in blood): prevents CD19-TCB dependent B cell depletion until 48 hrs post treatment
CD20+ B cells; 48 hrs, monohydrate
  killing of CD20+ B cells by CD19-TCB (B cell count in blood): prevented killing
CD20+ B cells; 72 hrs
  killing of CD20+ B cells by CD19-TCB (B cell count in blood): partially restored
